Laboratory results published in patent US5766896A, “Method of producing iodine by use of a copper containing oxidase enzyme” (Novo Nordisk Biotech Inc., priority 1994, dated 1998).
Read-outs that look alike come from different tables or passages of the source.

How the values were obtained:
[1] = target: Myceliophthora laccase (Thermothelomyces thermophilus, UniProt G2QG31); assay: chloride inhibition of Myceliophthora laccase; type: biochemical; settings: read-out: inhibition constant (chloride)
[2] = target: T1, recombinant Myceliophthora thermophila laccase (r-MtL) (Thermothelomyces thermophilus, UniProt G2QG31); assay: r-MtL-catalyzed ABTS oxidation; type: biochemical
T1 sequence (G2QG31 48-602): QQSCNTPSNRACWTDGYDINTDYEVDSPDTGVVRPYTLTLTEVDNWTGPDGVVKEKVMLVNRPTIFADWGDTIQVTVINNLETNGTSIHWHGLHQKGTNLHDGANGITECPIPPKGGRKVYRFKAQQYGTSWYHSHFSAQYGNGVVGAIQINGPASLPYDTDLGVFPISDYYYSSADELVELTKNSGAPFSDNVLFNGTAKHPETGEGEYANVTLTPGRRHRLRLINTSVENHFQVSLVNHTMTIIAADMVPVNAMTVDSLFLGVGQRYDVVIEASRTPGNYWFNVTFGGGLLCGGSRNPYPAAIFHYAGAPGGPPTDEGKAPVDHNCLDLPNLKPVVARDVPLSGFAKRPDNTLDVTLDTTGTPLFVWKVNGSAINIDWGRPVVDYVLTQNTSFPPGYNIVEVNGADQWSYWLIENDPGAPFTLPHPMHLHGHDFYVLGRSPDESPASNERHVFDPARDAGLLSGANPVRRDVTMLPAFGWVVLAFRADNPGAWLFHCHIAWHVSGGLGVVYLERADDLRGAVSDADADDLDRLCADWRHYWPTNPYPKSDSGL
Protocol: (§1) Enzymatic assays for determining oxidation of I^- are conducted in B & R buffer containing from 1-20 nM MtL (subunit concentration) and 10 to 200 mM Nal at 20° C. for 5-10 minutes. The extinction coefficient of 26 mM^-1 cm^-1 is used to calculate rate. Oxidation of I^- is spectrally monitored at 340 or 353 nm and the spectrum of the oxidation product is found identical to that of I3 -(Hosoya, Biochem. (Tokyo) 53: 381, 1963). Kinetic parameters are extracted by a non-linear regression fitting (Prism, GraphPad) of rate and concentration data to the equation of rate=Vmax *[substrate]/Km +[substrate].

[3] = system: tyrosinase (mushroom); settings: pH 2.7
Text: Chemicals used as buffers and substrates are commercial products of at least reagent grade. Ascorbate oxidase (Cucurbita species), ceruloplasmin (porcine plasma), bilirubin oxidase (Myrothecium verrucaria) and tyrosinase (mushroom) are purchased from Sigma and used as received. The contents of the enzymes in lyophilized powder or solution are confirmed by uv-visible absorption and published extinction coefficients. The stated activity of ascorbate oxidase is confirmed with ascorbic acid.
The extinction coefficient of 36 mM^-1 cm^-1 is used to calculate the rate. Spectroscopic assays are conducted on either a spectrophotometer (Shimadzu UV160) or a microplate reader (Molecular Devices). Britton & Robinson (B & R) buffers are prepared according to a standard protocol (Quelle, Biochemisches Taschenbuch, H. M. Raven, II. Teil, S.93 u. 102, 1964).

[4] = target: T1, recombinant Myceliophthora thermophila laccase (r-MtL); assay: r-MtL-catalyzed I^- oxidation; type: biochemical; settings: pH 3.4
Protocol: as §1

[5] = system: tyrosinase (mushroom); assay: tyrosinase-catalyzed I^- oxidation; type: biochemical; settings: optimal pH of 2.7
Protocol: as §1
(§2) Ascorbate oxidase, ceruloplasmin, bilirubin oxidase, and tyrosinase at concentrations up to μM level are also tested under similar conditions for I^- oxidation catalysis.

[6] = target: T2, bilirubin oxidase (Myrothecium verrucaria) (Albifimbria verrucaria, UniProt Q12737); assay: bilirubin oxidase-catalyzed I^- oxidation; type: biochemical; settings: optimal pH of 4.1
T2 construct: purchased Sigma
T2 sequence (Q12737 39-572): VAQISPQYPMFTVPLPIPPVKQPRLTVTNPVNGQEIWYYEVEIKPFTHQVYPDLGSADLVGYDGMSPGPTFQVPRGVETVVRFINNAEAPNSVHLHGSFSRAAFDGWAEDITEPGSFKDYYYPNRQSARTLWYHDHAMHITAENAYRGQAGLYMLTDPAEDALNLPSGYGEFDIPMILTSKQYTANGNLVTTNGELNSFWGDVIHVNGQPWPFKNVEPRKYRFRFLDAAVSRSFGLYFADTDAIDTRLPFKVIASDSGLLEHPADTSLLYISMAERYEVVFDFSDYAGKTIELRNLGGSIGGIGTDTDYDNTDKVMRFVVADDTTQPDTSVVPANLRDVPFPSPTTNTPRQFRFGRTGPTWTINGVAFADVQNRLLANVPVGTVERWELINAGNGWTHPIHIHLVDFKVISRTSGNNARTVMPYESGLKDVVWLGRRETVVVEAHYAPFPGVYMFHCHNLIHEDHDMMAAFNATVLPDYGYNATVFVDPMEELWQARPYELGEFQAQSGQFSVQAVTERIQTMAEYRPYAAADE
Protocol: as §1, §2

Structure (SMILES): Cl [chloride]
- Ki [1]: ~70 mM

Structure (SMILES): CCn1c(=NN=c2sc3cc(S(=O)(=O)O)ccc3n2CC)sc2cc(S(=O)(=O)O)ccc21 [ABTS, 2,2'-azinobis-(3-ethylbenzthiazoline-6-sulfonic acid)]
- Km of ABTS, fold smaller in comparison with I^- [2]: ~ 10^3 fold
- Vmax of ABTS, fold larger in comparison with I^- [2]: ~ 10^3 fold
- Vmax (ABTS oxidation) [3]: 3.1±0.1 turnover per minute
- Km ([3]; read-out: Km (ABTS)): 0.18 ± 0.01 mM

Structure (SMILES): I [I^-, iodide]
- Vmax (I^- oxidation) [4]: 2.7±0.2 turnover per minute
- Km [5]: ~100 mM
- Vmax (I^- oxidation) [5]: ca. 0.1 turnover per minute
- Vmax (I^- oxidation) [6]: 1.7±0.1 turnover per minute
